Experimental data as given in ChEMBL document CHEMBL2375353, “Efficient induction of apoptosis in HeLa cells by a novel cationic porphycene photosensitizer” (Eur J Med Chem, 2013).
Calls of active or inactive are those of the source. The calls are words filed in the database; no cut-off is given here.

Assays:
[1] = Cytotoxicity against human HeLa cells assessed as cell viability after 18 hrs by MTT assay in presence of 1 % FCS; assay type: cell-based; conditions: read-out: Activity
HeLa [2] = test: Phototoxicity against human HeLa cells assessed as cell viability at > 0.5 uM incubated for 18 hrs prior to 3.6 J/cm'2 red light irradiation by MTT assay; assay type: functional
HeLa [3] = test: Induction of apoptosis in human HeLa cells at 0.5 uM incubated for 18 hrs prior to red light irradiation measured after 6 to 24 hrs by Hoechst-33258 staining; assay type: functional, cell-based
HeLa [4] = test: Induction of apoptosis in human HeLa cells assessed as apoptotic chromatin at 0.5 uM incubated for 18 hrs followed by red light irradiation measured after 6 hrs by immunostaining assay; assay type: functional, cell-based
HeLa [5] = test: Induction of apoptosis in human HeLa cells assessed as trypsin-mediated cell detachment incubated for 18 hrs prior to red light irradiation measured after 24 hrs by hemocytometer; assay type: functional, cell-based
HeLa [6] = test: Induction of apoptosis in human HeLa cells assessed as relocalization of proapoptotic Bax protein within mitochondria at 0.75 to 0.5 uM after 18 hrs by indirect immunofluorescence; assay type: cell-based
HeLa [7] = test: Drug uptake in human HeLa cells at 0.75 uM after 18 hrs by fluorescence microscopy; assay type: ADME, cell-based
HeLa [8] = test: Drug uptake in human HeLa cells assessed as perinuclear localization at 0.5 uM incubated for 18 hrs prior to UV irradiation by fluorescence microscopy; assay type: ADME, cell-based
HeLa [9] = test: Induction of apoptosis in human HeLa cells assessed as volume reduction at 0.5 uM incubated for 18 hrs prior to red light irradiation measured after 3 hrs by neutral red staining; assay type: functional, cell-based
HeLa [10] = test: Phototoxicity against human HeLa cells at 1 uM incubated for 18 hrs prior to 2.4 J/cm'2 red light irradiation by MTT assay; assay type: functional
HeLa [11] = test: Induction of necrosis in human HeLa cells assessed as breaking of giant bubble at 0.75 uM incubated for 18 hrs prior to red light irradiation measured after 6 hrs by phase contrast microscopy; assay type: functional, cell-based
HeLa [12] = test: Phototoxicity against human HeLa cells at 0.75 uM incubated for 18 hrs prior to red light irradiation measured after 3 to 24 hrs by trypan blue exclusion assay; assay type: functional, cell-based
HeLa [13] = test: Induction of apoptosis in human HeLa cells at 0.75 to 0.5 uM after 18 hrs by Hoechst-33258 staining; assay type: cell-based
HeLa [14] = test: Induction of apoptosis in human HeLa cells at 0.5 uM incubated for 18 hrs prior to red light irradiation measured after 24 hrs; assay type: functional
HeLa [15] = test: Drug uptake in human HeLa cells assessed as localization to lysosome at 0.5 uM after 18 hrs by prior to UV irradiation by fluorescence microscopy; assay type: ADME, cell-based
HeLa [16] = test: Induction of necrosis in human HeLa cells assessed as disorganization of F-actin at 0.75 uM incubated for 18 hrs followed by red light irradiation measured after 24 hrs by immunostaining; assay type: functional, cell-based
[17] = Darktoxicity against human HeLa cells assessed as cell survival at > 0.5 microM after 18 hrs by MTT assay; assay type: cell-based; conditions: read-out: Activity
HeLa [18] = test: Induction of apoptosis in human HeLa cells assessed as reduction in vinculin expression at 0.5 uM incubated for 18 hrs followed by red light irradiation measured after 3 hrs by immunostaining assay; assay type: functional, cell-based
HeLa [19] = test: Induction of apoptosis in human HeLa cells assessed as trypsin-mediated cell detachment at 0.5 to 0.75 uM incubated for 18 hrs prior to red light irradiation by hemocytometer; assay type: functional, cell-based
HeLa [20] = test: Phototoxicity against human HeLa cells at 0.75 uM incubated for 18 hrs prior to 3.6 J/cm'2 red light irradiation by MTT assay; assay type: functional, cell-based
HeLa [21] = test: Induction of apoptosis in human HeLa cells assessed as membrane blebbing at 0.5 uM incubated for 18 hrs prior to red light irradiation measured after 6 hrs by phase contrast microscopy; assay type: functional, cell-based
HeLa [22] = test: Induction of necrosis in human HeLa cells at 0.5 uM incubated for 18 hrs prior to red light irradiation measured after 6 to 24 hrs by Hoechst-33258 staining; assay type: functional, cell-based
HeLa [23] = test: Induction of apoptosis in human HeLa cells assessed as reduction in cell volume at 0.5 uM incubated for 18 hrs followed by red light irradiation measured after 3 hrs by Hoechst-33258 staining; assay type: functional, cell-based
HeLa [24] = test: Induction of apoptosis in human HeLa cells at 0.5 uM incubated for 18 hrs prior to red light irradiation measured after 6 hrs by TUNEL assay; assay type: functional, cell-based
HeLa [25] = test: Induction of apoptosis in human HeLa cells assessed as membrane bubble at 0.5 uM incubated for 18 hrs followed by red light irradiation measured after 6 hrs by immunostaining assay; assay type: functional, cell-based
HeLa [26] = test: Induction of necrosis in human HeLa cells assessed as cellular damage at 0.75 uM incubated for 18 hrs followed by red light irradiation measured after 24 hrs; assay type: functional, cell-based
HeLa [27] = test: Induction of apoptosis in human HeLa cells incubated for 18 hrs prior to red light irradiation measured after 3 hrs by trypan blue exclusion assay; assay type: functional, cell-based
HeLa [28] = test: Induction of ROS generation in human HeLa cells assessed as singlet oxygen luminescence signal at 5 uM after 18 hrs in presence of sodium azide; assay type: functional, cell-based
HeLa [29] = test: Induction of ROS generation in human HeLa cells assessed as cell survival at 0.5 uM incubated for 18 hrs prior to red light irradiation measured after 24 hrs by MTT assay; assay type: functional; conditions: light or radiation study, read-out: Activity
HeLa [30] = test: Induction of apoptosis in human HeLa cells assessed as reduction in F-actin expression at 0.5 uM incubated for 18 hrs followed by red light irradiation measured after 6 hrs by immunostaining assay; assay type: functional, cell-based
HeLa [31] = test: Induction of apoptosis in human HeLa cells assessed as microtubule alteration at 0.75 to 0.5 uM after 18 hrs by […]; assay type: cell-based
[32] = Cytotoxicity against human HeLa cells assessed as cell viability after 18 hrs by MTT assay in presence of 10 % FCS; assay type: cell-based; conditions: read-out: Activity

With COCc1ccc(C2=Cc3nc2ccc2[nH]c(cc2-c2ccc(C[n+]4ccccc4)cc2)c2nc(ccc4[nH]c3cc4-c3ccc(C[n+]4ccccc4)cc3)C(c3ccc(C[n+]4ccccc4)cc3)=C2)cc1.[Br-].[Br-].[Br-] the viability at 18 h [1] was 98.6%, the Activity (HeLa [2]) was less than 10% and the Activity (HeLa [3]) was “Active”. For the same compound, the Activity (HeLa [4]) was “Active”, the Activity (HeLa [5]) was “Dose-dependent effect” and the Activity (HeLa [6]) was “Non-toxic”. The Drug uptake (HeLa [7]) was “Active”, the Drug uptake (HeLa [8]) was “Active” and the Activity (HeLa [9]) was “Active”. The Activity (HeLa [10]) was greater than 50%, the Activity (HeLa [11]) was “Active” and the Activity (HeLa [12]) was “Active”. For the same compound, the Activity (HeLa [13]) was “Non-toxic”, the Activity (HeLa [14]) was 70% and the Drug uptake (HeLa [15]) was “Active”. For the same compound, the Activity (HeLa [16]) was “Active”, the viability at 18 h [17] was greater than 90% and the Activity (HeLa [18]) was “Active”. The Activity (HeLa [19]) was “Active”, the Activity (HeLa [20]) was “Active” and the Activity (HeLa [21]) was “Active”. For the same compound, the Activity (HeLa [22]) was “Active”, the Activity (HeLa [23]) was “Active” and the Activity (HeLa [24]) was “Active”. The Activity (HeLa [25]) was “Active”, the Activity (HeLa [26]) was “Active” and the Activity (HeLa [27]) was “Active”. The Activity (HeLa [28]) was “inactive”, the viability at 0.5 µM (HeLa [29]) was 5.2% and the Activity (HeLa [30]) was “Active”. For the same compound, the Activity (HeLa [31]) was “Non-toxic” and the viability at 18 h [32] was 100%.
